Laboratory results as given in US12258344B2, “Azaaromatic amide derivatives for the treatment of cancer” (SHENZHEN FORWARD PHARMACEUTICALS CO., LTD., priority 2019, dated 2025).

How the values were obtained:
Assay type in all cases: cell-based
BaF3 (EGFR-D770insSVD) = BaF3 (EGFR-D770insSVD) (Homo sapiens, UniProt P00533, DUP768-770, cells depend on it); assay: Test 2: BaF3 (EGFR-D770insSVD) cell proliferation test; conditions: 72 hours, Cell Titer-Glo, read-out: Test 2 - IC50
Experimental: Test 2: BaF3 (EGFR-D770insSVD) Cell Proliferation Test
BaF3 (EGFR-D770insSVD) was cultured in RPMI1640 medium containing 10% fetal bovine serum and 2 mM glutamine. The cells were grown at 37° C. in a humidified incubator with 5% CO2.
(§1) The number of viable cells in the culture was measured according to the protocol described in Promega's Cell Titer-Glo Luminescent cell Viability Assay (Promega catalog number #G7570). 90 μl of cells (3,000 cells/well) were cultured in growth medium in a Corning black transparent bottom 96-well plate, and cultured in a 5% CO2 humidified incubator at 37° C. overnight. The compound serially diluted in 100% DMSO was added to the cells using a pipette, and the cells were incubated for another 72 hours. 100 μl of the mixed Cell Titer-Glo reagent was added to the cells in the 96-well culture plate to lyse the cells and mix gently. Subsequently, the […] was detected on the Envision microplate detector to obtain the data of each compound. Finally, the data was input into a suitable software package (such as Prism) for curve fitting analysis.

BaF3 (EGFR-N771insH) = BaF3 (EGFR-N771insH) (Homo sapiens, UniProt P00533, INS771H, cells depend on it); assay: Test 5: BaF3 (EGFR-N771insH) cell proliferation test; conditions: 72 hours, Cell Titer-Glo, read-out: Test 5 - IC50
BaF3 (EGFR-N771insH), sequence (P00533 with tags, fused parts or gaps INS771H): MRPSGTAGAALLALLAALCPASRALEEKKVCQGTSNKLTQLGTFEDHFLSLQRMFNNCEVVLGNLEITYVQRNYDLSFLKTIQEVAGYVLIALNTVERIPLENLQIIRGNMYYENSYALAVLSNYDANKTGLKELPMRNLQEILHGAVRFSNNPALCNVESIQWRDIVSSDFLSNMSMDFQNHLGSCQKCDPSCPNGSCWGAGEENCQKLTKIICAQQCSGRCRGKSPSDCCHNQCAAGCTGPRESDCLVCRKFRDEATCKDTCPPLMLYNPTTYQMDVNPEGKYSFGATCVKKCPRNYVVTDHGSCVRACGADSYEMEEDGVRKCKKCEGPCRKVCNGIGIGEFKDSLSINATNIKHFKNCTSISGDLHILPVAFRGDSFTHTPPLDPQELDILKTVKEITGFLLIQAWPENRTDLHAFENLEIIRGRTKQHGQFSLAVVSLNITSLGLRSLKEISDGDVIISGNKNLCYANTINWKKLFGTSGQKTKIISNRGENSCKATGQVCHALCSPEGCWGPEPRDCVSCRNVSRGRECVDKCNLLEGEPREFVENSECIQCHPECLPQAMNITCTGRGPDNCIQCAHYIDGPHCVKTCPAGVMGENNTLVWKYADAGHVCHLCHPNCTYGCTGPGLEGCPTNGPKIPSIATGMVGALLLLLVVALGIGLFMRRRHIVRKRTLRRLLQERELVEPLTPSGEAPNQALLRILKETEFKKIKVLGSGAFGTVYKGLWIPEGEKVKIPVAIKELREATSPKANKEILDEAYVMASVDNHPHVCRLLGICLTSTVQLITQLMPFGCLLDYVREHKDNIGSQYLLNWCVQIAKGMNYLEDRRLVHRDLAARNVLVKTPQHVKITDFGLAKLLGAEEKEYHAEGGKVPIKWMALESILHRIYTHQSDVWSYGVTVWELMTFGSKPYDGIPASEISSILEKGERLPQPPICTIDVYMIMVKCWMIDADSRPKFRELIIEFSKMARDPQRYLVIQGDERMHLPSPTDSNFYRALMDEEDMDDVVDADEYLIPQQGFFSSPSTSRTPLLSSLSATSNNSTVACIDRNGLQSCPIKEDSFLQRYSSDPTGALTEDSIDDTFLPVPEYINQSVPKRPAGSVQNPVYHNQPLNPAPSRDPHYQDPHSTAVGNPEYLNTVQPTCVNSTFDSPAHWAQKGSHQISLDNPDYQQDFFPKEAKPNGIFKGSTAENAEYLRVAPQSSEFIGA
Experimental: Test 5: BaF3 (EGFR-N771insH) Cell Proliferation Test
BaF3 (EGFR-N771insH) was cultured in RPMI1640 medium containing 10% fetal bovine serum and 2 mM glutamine. The cells were grown at 37° C. in a humidified incubator with 5% CO2.
as §1

BaF3 (HER2-A775insYVMA) = BaF3 (HER2-A775insYVMA) (Homo sapiens, UniProt P04626, DUP772-775, cells depend on it); assay: Test 9: BaF3 (HER2-A775insYVMA) cell proliferation test; conditions: 72 hours, Cell Titer-Glo, read-out: Test 9 - IC50
BaF3 (HER2-A775insYVMA), sequence (P04626 with tags, fused parts or gaps DUP772-775): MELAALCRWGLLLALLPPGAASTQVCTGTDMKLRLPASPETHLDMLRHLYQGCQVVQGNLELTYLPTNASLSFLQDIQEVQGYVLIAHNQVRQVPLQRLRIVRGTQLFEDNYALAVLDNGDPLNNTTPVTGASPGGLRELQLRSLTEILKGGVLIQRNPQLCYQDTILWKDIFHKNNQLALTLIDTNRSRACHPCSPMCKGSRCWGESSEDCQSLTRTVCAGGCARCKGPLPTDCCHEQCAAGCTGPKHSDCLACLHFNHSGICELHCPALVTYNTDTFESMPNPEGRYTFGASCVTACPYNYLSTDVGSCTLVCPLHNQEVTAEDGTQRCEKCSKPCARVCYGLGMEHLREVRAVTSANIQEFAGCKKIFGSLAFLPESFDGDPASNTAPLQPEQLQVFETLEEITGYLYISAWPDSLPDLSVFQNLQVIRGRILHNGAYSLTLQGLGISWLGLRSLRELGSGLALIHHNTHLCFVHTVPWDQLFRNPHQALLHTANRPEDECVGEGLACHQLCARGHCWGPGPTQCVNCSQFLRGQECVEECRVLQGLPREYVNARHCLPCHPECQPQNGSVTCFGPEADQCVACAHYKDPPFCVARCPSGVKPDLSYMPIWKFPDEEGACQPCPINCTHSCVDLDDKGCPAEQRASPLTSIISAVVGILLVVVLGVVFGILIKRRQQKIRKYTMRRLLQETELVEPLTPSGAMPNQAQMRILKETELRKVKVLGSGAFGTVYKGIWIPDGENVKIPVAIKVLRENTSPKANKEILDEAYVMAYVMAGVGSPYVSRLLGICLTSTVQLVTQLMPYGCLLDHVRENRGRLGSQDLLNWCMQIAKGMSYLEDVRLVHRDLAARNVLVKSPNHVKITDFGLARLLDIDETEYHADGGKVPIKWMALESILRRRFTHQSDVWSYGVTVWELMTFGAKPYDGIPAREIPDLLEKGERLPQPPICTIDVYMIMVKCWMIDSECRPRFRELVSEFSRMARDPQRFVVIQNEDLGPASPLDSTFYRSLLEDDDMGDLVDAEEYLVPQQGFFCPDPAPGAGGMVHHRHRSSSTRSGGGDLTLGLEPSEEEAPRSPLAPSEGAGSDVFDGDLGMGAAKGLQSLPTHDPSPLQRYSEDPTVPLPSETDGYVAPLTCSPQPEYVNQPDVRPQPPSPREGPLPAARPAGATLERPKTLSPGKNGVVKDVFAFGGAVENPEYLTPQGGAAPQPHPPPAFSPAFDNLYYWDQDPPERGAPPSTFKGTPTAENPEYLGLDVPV
Experimental: Test 9: BaF3 (HER2-A775insYVMA) Cell Proliferation Test
BaF3 (HER2-A775insYVMA) was cultured in RPMI1640 medium containing 10% fetal bovine serum and 2 mM glutamine. The cells were grown at 37° C. in a humidified incubator with 5% CO2.
as §1

BaF3 (EGFR-V769insASV) = BaF3 (EGFR-V769insASV) (Homo sapiens, UniProt P00533, DUP767-769, cells depend on it); assay: Test 4: BaF3 (EGFR-V769insASV) cell proliferation test; conditions: 72 hours, Cell Titer-Glo, read-out: Test 4 - IC50
BaF3 (EGFR-V769insASV), sequence (P00533 with tags, fused parts or gaps DUP767-769): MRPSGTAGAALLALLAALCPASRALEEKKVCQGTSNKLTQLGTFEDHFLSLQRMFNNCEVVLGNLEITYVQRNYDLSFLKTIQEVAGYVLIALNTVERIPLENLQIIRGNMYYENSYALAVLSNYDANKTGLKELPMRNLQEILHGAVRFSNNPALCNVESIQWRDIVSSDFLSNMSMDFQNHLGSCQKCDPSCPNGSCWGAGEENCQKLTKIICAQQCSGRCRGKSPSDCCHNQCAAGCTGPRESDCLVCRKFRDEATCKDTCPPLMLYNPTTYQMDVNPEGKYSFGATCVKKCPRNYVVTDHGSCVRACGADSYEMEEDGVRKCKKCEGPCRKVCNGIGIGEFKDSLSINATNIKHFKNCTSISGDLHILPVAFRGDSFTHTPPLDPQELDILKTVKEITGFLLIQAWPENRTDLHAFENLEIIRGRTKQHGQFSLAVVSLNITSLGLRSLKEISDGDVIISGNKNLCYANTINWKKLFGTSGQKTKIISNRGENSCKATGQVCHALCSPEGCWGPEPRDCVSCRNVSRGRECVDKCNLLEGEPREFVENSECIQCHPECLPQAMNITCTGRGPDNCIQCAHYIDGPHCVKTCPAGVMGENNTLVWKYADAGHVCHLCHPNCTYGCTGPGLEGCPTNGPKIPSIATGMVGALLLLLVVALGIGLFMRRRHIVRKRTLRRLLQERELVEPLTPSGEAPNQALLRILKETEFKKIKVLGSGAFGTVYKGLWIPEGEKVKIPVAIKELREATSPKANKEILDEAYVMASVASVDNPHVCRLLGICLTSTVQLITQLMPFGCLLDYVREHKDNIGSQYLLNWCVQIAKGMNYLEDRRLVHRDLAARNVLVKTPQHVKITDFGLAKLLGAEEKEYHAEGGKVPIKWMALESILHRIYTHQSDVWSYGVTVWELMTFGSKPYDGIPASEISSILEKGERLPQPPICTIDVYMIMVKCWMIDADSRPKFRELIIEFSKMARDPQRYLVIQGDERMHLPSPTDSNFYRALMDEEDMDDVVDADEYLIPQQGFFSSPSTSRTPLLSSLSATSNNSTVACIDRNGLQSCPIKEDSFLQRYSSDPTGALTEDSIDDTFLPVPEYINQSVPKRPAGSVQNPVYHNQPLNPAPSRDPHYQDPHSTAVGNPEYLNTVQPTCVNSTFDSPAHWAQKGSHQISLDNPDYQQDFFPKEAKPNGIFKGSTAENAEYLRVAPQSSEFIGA
Experimental: Test 4: BaF3 (EGFR-V769insASV) Cell Proliferation Test
BaF3 (EGFR-V769insASV) was cultured in RPMI1640 medium containing 10% fetal bovine serum and 2 mM glutamine. The cells were grown at 37° C. in a humidified incubator with 5% CO2.
as §1

BaF3 (EGFR-D770insSVD), sequence (P00533 with tags, fused parts or gaps DUP768-770): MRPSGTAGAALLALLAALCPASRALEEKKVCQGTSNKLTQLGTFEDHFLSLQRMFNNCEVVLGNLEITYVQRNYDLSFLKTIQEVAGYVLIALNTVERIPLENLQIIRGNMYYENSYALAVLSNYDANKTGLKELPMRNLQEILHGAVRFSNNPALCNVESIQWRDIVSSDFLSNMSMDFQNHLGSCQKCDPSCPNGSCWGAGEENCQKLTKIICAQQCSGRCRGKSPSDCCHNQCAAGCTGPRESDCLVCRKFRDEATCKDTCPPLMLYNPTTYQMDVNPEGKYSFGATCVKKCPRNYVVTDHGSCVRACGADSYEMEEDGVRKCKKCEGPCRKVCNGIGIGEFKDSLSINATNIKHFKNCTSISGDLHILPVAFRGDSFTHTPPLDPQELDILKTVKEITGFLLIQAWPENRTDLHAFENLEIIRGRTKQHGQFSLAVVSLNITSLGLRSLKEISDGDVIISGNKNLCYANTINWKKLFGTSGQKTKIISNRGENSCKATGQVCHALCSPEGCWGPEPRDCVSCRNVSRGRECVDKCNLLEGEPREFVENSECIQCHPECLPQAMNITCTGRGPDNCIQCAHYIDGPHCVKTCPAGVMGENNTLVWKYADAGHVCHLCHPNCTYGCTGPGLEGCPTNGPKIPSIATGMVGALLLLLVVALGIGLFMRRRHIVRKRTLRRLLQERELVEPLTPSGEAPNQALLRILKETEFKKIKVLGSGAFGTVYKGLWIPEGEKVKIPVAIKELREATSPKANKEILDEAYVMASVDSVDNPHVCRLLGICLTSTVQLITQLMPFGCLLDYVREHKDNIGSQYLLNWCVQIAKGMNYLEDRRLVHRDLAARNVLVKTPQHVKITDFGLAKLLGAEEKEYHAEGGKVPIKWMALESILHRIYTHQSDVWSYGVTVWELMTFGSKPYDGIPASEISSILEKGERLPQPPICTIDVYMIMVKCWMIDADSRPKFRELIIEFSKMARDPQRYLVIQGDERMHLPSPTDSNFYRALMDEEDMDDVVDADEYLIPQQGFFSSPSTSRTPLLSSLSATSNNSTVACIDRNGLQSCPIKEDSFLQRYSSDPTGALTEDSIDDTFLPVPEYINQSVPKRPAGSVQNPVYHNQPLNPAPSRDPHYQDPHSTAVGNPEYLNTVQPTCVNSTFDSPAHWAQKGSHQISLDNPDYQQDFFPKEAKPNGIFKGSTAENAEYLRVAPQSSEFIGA

Compound | GI50 (BaF3 (EGFR-D770insSVD)) [nM] | GI50 (BaF3 (EGFR-N771insH)) [nM] | GI50 (BaF3 (HER2-A775insYVMA)) [nM] | GI50 (BaF3 (EGFR-V769insASV)) [nM]
C=CC(=O)Nc1cc(Nc2ncnc(-c3cn(C)c4ccc(F)cc34)n2)c(OC)cc1N(C)CCN(C)C [Example 11] | 22.3 | 9.19 | 14.2 | 47.9
C=CC(=O)Nc1cc(Nc2ncnc(-c3cn(C)c4ccc(F)cc34)n2)c(OC(F)F)cc1N(C)CCN(C)C [Example 14, N-(4-(difluoromethoxy)-2-((2-(dimethylamino)ethyl)(methyl)amino)-5-((4-(5-fluoro-1-methyl-1H-indol-3-yl)-1,3,5-triazin-2-yl)amino)phenyl)acrylamide] | 16.4 | 9.21 | 12.4 | 25.9
C=CC(=O)Nc1cc(Nc2ncnc(-c3cn(C)c4ccc(F)cc34)n2)c(OCC(F)(F)F)cc1N(C)CCN(C)C [Example 15, N-(2-((2-(dimethylamino)ethyl)(methyl)amino)-5-((4-(5-fluoro-1-methyl-1H-indol-3-yl)-1,3,5-triazin-2-yl)amino)-4-(2,2,2-trifluoroethoxy)phenyl)acrylamide] | 24.4 | 7.66 | 10.8 | 45
